Article PMC8537711, “Mechanistic Insights into Binding of Ligands with Thiazolidinedione Warhead to Human Histone Deacetylase 4” (Pharmaceuticals, 2021)
Each block holds one molecule with its values, some of them ahead of it.

Legend:
[1] = molecular target: T1, cdHDAC4wt (catalytic domain of human wild type histone deacetylase 4) (Homo sapiens, UniProt P56524); assay: IC50 determination, enzyme activity assay with Boc-Lys{TFA}-AMC; format: biochemical; conditions: mean ± SD, N = 3
T1 construct: consists of 410 amino acids (human HDAC4 T648-T1057) and has a molecular weight of 44.2 kDa; His6-SUMO (cleaved yes); made in house; host or cells: E. coli (BL21) DE3 pLysS, pET14b vector
Description: Afterwards the enzymatic reaction was initiated by the addition of 20 µM Boc-Lys{TFA}-7-Amino-4-methylcoumarin (Bachem, Bubendorf, Switzerland) as substrate. […] The deacetylated substrate was converted into a fluorescent product by the addition of 0.4 mg/mL trypsin (AppliChem, Darmstadt, Germany). The release of fluorogenic substrate was followed in a microplate reader (PherStar Plus, BMG Labtech, Ortenberg, Germany) at 450 nm (λEx = 350 nm) and correlated to enzyme activity.
All incubations steps were performed for 60 min at 30 °C and 450 rpm.

[2] = molecular target: T2, cdHDAC4wt (Homo sapiens, UniProt P56524); assay: Association kinetics (semi continuous enzyme activity assay, kobs vs inhibitor concentration); format: biochemical; conditions: for residence time: 1/koff (two step) or 1/k−3 (one step), read-out: RT (KF), residence time from kinetic fit; for forward isomerization rate constant (k2) / koff: isomerization rate; for koff: y-axis intercept; for Ki: two step induced fit model, read-out: K1 (equilibrium constant of initial encounter complex); for y-intercept of kobs plot (k−3): linear regression; for y-intercept of kobs plot (k−3) / k3 / k−3: one step model; for k3: slope of kobs vs ligand concentration; for k−3: y-intercept
T2 construct: consists of 410 amino acids (human HDAC4 T648-T1057) and has a molecular weight of 44.2 kDa; His6-SUMO (cleaved yes); made in house; host or cells: E. coli (BL21) DE3 pLysS, pET14b vector
Description: A serial dilution of inhibitor beginning at 10-fold of respective IC50-value in assay buffer (25 mM Tris-HCl, pH 8.0, 75 mM KCl, 0.001% Pluronic F-127) was made in a black 96-well microtiter half-area plate (Greiner, Kremsmuenster, Austria). The dilutions were added to 3 nM cdHDAC4wt. Shortly after, the reaction was initiated by adding 20 µM Boc-Lys{TFA}-7-Amino-4-methylcoumarin (Bachem, Bubendorf, Switzerland) as substrate. […] Finally 0.4 mg/mL trypsin was added to split the deacetylated substrate in the fluorescent product which was measured at 450 nm (λEx = 350 nm) (PherStar Plus, BMG Labtech, Ortenberg, Germany). […] The standardized RFUs were plotted against the incubation time. […] Due to this knowledge the data were fitted via non linear regression with GraphPad Prism program to the following equation by Copeland [27]:(2) Y=νs·t+νi−νs/kobs·(1−e^(−kobs·t))+d where vi is the initial slope, vs is the second lower slope, kobs is the respective rate constant, t is time and d the correction for possible data offset.
Afterwards kobs values were plotted against their respective inhibitor concentration.

[3] = molecular target: T2, cdHDAC4wt; assay: Reversibility assay via rapid dilution; residence time from reversibility data; format: biochemical; conditions: first order dissociation assumed; read-out: RT (RD), residence time from rapid dilution
Description: Rapid dilution was performed by diluting the incubated mixture 100-fold with substrate (Boc-Lys{TFA}-7-Amino-4-methylcoumarin (Bachem, Bubendorf, Switzerland)) with the final substrate concentration being 20 µM. […] A positive control without TZD ligand and a blank without enzyme and TZD ligand were also carried out. […] Once again the final substrate concentration was 20 µM. […] The deacetylated substrate was converted into a fluorescent product by the addition of 0.4 mg/mL trypsin (AppliChem, Darmstadt, Germany). The release of fluorogenic substrate was followed in a microplate reader (PherStar Plus, BMG Labtech, Ortenberg, Germany) at 450 nm (λEx = 350 nm) and correlated the positive control. […] All incubations steps were performed for 60 min at 30 °C and 450 rpm. The substrate was preheated to 30 °C before the rapid dilution step.
The reciprocal values for k equals the residence time of the respective TZD ligand (residence time = koff^−1), which can be compared with the residence times gained from association data.

T1 sequence (P56524 648-1057): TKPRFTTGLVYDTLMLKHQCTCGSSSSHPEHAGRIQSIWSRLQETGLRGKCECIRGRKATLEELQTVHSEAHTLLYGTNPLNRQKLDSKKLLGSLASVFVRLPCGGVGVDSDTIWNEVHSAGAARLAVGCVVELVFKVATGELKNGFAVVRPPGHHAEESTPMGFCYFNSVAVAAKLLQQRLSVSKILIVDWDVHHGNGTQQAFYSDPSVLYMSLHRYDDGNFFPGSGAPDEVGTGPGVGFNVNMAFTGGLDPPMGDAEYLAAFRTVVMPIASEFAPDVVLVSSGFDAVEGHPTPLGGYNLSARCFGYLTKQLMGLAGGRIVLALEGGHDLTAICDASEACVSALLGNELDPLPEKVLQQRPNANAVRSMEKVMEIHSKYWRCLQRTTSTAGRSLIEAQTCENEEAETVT
T2 sequence (P56524 648-1057): as above

Structure (SMILES): O=C1NC(=O)/C(=C/c2ccc(OCC(=O)N3N=C(c4ccccc4)CC3c3ccc(C(F)(F)F)cc3)cc2)S1 (stereo not shown) [4d]
IC50 [1]: 0.79 ± 0.04 µM | residence time [2]: 26 ± 11 min | forward isomerization rate constant (k2) ([2]; two step model): 0.008 ± 0.001 s⁻¹ | koff ([2]; two step model): 0.0006 ± 0.0003 s⁻¹ | Ki [2]: 1.7 ± 0.7 µM | kon ([2]; two step model): (8 ± 1) × 10^−3 s^−1 | residence time [3]: 23 ± 6 min

Structure (SMILES): O=C(COc1ccc2cc(/C=C3\SC(=O)NC3=O)ccc2c1)Nc1ccc(C(F)(F)F)cc1 [7i]
IC50 [1]: 1.3 ± 0.1 µM | residence time [2]: 9.3 ± 0.5 min | y-intercept of kobs plot (k−3) [2]: 0.0018 s⁻¹ | k3 [2]: 100 ± 30 M⁻¹ s⁻¹ | k−3 [2]: 0.18 ± 0.01 s^−1 (×10^−2) | residence time [3]: 17 ± 3 min

Structure (SMILES): O=C(COc1ccc2cc(/C=C3\SC(=O)NC3=O)ccc2c1)Nc1ncccc1F [7s]
IC50 [1]: 0.78 ± 0.08 µM | residence time [2]: 10 ± 1 min | y-intercept of kobs plot (k−3) [2]: 0.0016 s⁻¹ | k3 [2]: 210 ± 40 M⁻¹ s⁻¹ | k−3 [2]: 0.16 ± 0.02 s^−1 (×10^−2) | residence time [3]: 11 ± 1 min

Structure (SMILES): O=C1NC(=O)/C(=C/c2ccc3cc(OCC(=O)N4N=C(c5ccccc5)CC4c4ccccc4)ccc3c2)S1 (stereo not shown) [8a]
IC50 [1]: 0.77 ± 0.09 µM | residence time [2]: 11 ± 4 min | forward isomerization rate constant (k2) ([2]; two step model): 0.0049 ± 0.0014 s⁻¹ | koff ([2]; two step model): 0.0015 ± 0.0006 s⁻¹ | Ki [2]: 2.4 ± 1.8 µM | residence time [3]: 19 ± 2 min

Structure (SMILES): Cc1ccc(C=C2SC(=O)N(CC(=O)Nc3nc4c(Cl)cccc4s3)C2=O)cc1 [GB2, N-(4-chlorobenzo[d]thiazol-2-yl)-2-(5-(4-methylbenzylidene)-2,4-dioxothiazolidin-3-yl)acetamide]
melting point: 292 to 294 °C

Structure (SMILES): Cc1ccc(C=C2SC(=O)N(CC(=O)Nc3nc4c(Cl)cccc4s3)C2=O)cc1C [GB6, N-(4-chlorobenzo[d]thiazol-2-yl)-2-(5-(3,4-dimethylbenzylidene)-2,4-dioxothiazolidin-3-yl)acetamide]
melting point: 214 to 216 °C

Structure (SMILES): COc1cccc2sc(NC(=O)CN3C(=O)SC(=Cc4ccccc4)C3=O)nc12 [GB8, 2-(5-benzylidene-2,4-dioxothiazolidin-3-yl)-N-(4-methoxybenzo[d]thiazol-2-yl)acetamide]
melting point: 157 to 159 °C

Structure (SMILES): Cc1cccc2sc(NC(=O)CN3C(=O)SC(=Cc4ccc(F)cc4)C3=O)nc12 [GB10, 2-(5-(4-fluorobenzylidene)-2,4-dioxothiazolidin-3-yl)-N-(4-methylbenzo[d]thiazol-2-yl)acetamide]
melting point: 225 to 227 °C

Structure (SMILES): O=C(CN1C(=O)SC(=Cc2ccccc2)C1=O)Nc1nc2c(F)cc(F)cc2s1 [GB12, 2-(5-benzylidene-2,4-dioxothiazolidin-3-yl)-N-(4,6-difluorobenzo[d]thiazol-2-yl)acetamide]
melting point: 280 to 282 °C

Structure (SMILES): Cc1ccc2nc(NC(=O)CN3C(=O)SC(=Cc4ccc(F)cc4F)C3=O)sc2c1 [GB13, 2-(5-(2,4-difluorobenzylidene)-2,4-dioxothiazolidin-3-yl)-N-(6-methylbenzo[d]thiazol-2-yl)acetamide]
melting point: 266 to 268 °C

Structure (SMILES): Cc1ccc(C=C2SC(=O)N(CC(=O)Nc3nc4c(F)cc(F)cc4s3)C2=O)cc1 [GB19, N-(4,6-difluorobenzo[d]thiazol-2-yl)-2-(5-(4-methylbenzylidene)-2,4-dioxothiazolidin-3-yl)acetamide]
melting point: 295 to 297 °C

Structure (SMILES): Cc1ccc(C=C2SC(=O)N(CC(=O)Nc3nc4c(F)cc(F)cc4s3)C2=O)cc1C [GB20, N-(4,6-difluorobenzo[d]thiazol-2-yl)-2-(5-(3,4-dimethylbenzylidene)-2,4-dioxothiazolidin-3-yl)acetamide]
melting point: 271 to 273 °C

Structure (SMILES): Cc1cc2nc(NC(=O)CN3C(=O)SC(=Cc4ccccc4)C3=O)sc2cc1C [GB22, 2-(5-benzylidene-2,4-dioxothiazolidin-3-yl)-N-(5,6-dimethylbenzo[d]thiazol-2-yl)acetamide]
melting point: 276 to 278 °C

Structure (SMILES): Cc1cc2nc(NC(=O)CN3C(=O)SC(=Cc4ccc(F)cc4)C3=O)sc2cc1C [GB25, N-(5,6-dimethylbenzo[d]thiazol-2-yl)-2-(5-(4-fluorobenzylidene)-2,4-dioxothiazolidin-3-yl)acetamide]
melting point: 298 to 299 °C

Structure (SMILES): Cc1ccc(C=C2SC(=O)N(CC(=O)Nc3nc4cc(C)c(C)cc4s3)C2=O)cc1C [GB26, N-(5,6-dimethylbenzo[d]thiazol-2-yl)-2-(5-(3,4-dimethylbenzylidene)-2,4-dioxothiazolidin-3-yl)acetamide]
melting point: 284 to 286 °C

Structure (SMILES): O=C(CN1C(=O)SC(=Cc2ccc(F)cc2F)C1=O)Nc1nc2c(F)cc(F)cc2s1 [GB29, N-(4,6-difluorobenzo[d]thiazol-2-yl)-2-(5-(2,4-difluorobenzylidene)-2,4-dioxothiazolidin-3-yl)acetamide]
melting point: 274 to 276 °C

Structure (SMILES): O=C(CN1C(=O)SC(=Cc2ccccc2)C1=O)Nc1nc2c(F)cccc2s1 [GB30, 2-(5-benzylidene-2,4-dioxothiazolidin-3-yl)-N-(4-fluorobenzo[d]thiazol-2-yl)acetamide]
melting point: 272 to 274 °C

Structure (SMILES): Cc1ccc2nc(NC(=O)CN3C(=O)SC(=Cc4ccc(Br)cc4)C3=O)sc2c1 [GB31, 2-(5-(4-bromobenzylidene)-2,4-dioxothiazolidin-3-yl)-N-(6-methylbenzo[d]thiazol-2-yl)acetamide]
melting point: 292 to 294 °C

Structure (SMILES): O=C(CN1C(=O)SC(=Cc2ccc(Cl)cc2)C1=O)Nc1nc2ccc(F)cc2s1 [GB33, 2-(5-(4-chlorobenzylidene)-2,4-dioxothiazolidin-3-yl)-N-(6-fluorobenzo[d]thiazol-2-yl)acetamide]
melting point: 290 to 292 °C

Structure (SMILES): O=C(CN1C(=O)SC(=Cc2ccc(F)cc2)C1=O)Nc1nc2ccc(F)cc2s1 [GB34, N-(6-fluorobenzo[d]thiazol-2-yl)-2-(5-(4-fluorobenzylidene)-2,4-dioxothiazolidin-3-yl)acetamide]
melting point: 260 to 262 °C

Structure (SMILES): COc1cccc2sc(NC(=O)CN3C(=O)SC(=Cc4ccc(F)cc4)C3=O)nc12 [GB35, 2-(5-(4-fluorobenzylidene)-2,4-dioxothiazolidin-3-yl)-N-(4-methoxybenzo[d]thiazol-2-yl)acetamide]
melting point: 172 °C

Results, then the molecule that gave them:

melting point: 260 °C (dec.)
Structure (SMILES): Cc1cccc2sc(NC(=O)CN3C(=O)SC(=Cc4ccccn4)C3=O)nc12 [PB2, 2-(2,4-dioxo-5-(pyridin-2-ylmethylene)thiazolidin-3-yl)-N-(4-methylbenzo[d]thiazol-2-yl)acetamide]

melting point: 273 °C (dec.)
Structure (SMILES): O=C(CN1C(=O)SC(=Cc2ccccn2)C1=O)Nc1nc2c(Cl)cccc2s1 [PB4, N-(4-chlorobenzo[d]thiazol-2-yl)-2-(2,4-dioxo-5-(pyridin-2-ylmethylene)thiazolidin-3-yl)acetamide]

melting point: 294 °C (dec.)
Structure (SMILES): O=C(CN1C(=O)SC(=Cc2ccccn2)C1=O)Nc1nc2c(F)cc(F)cc2s1 [PB5, N-(4,6-difluorobenzo[d]thiazol-2-yl)-2-(2,4-dioxo-5-(pyridin-2-ylmethylene)thiazolidin-3-yl)acetamide]

melting point: 295 °C (dec.)
Structure (SMILES): Cc1cc2nc(NC(=O)CN3C(=O)SC(=Cc4ccccn4)C3=O)sc2cc1C [PB6, N-(5,6-dimethylbenzo[d]thiazol-2-yl)-2-(2,4-dioxo-5-(pyridin-2-ylmethylene)thiazolidin-3-yl)acetamide]

melting point: 220 to 222 °C
Structure (SMILES): COc1cccc2sc(NC(=O)CN3C(=O)SC(=Cc4ccccn4)C3=O)nc12 [PB7, 2-(2,4-dioxo-5-(pyridin-2-ylmethylene)thiazolidin-3-yl)-N-(4-methoxybenzo[d]thiazol-2-yl)acetamide]

melting point: 230 °C (dec.)
Structure (SMILES): CCOc1ccc2nc(NC(=O)CN3C(=O)SC(=Cc4ccccn4)C3=O)sc2c1 [PB8, 2-(2,4-dioxo-5-(pyridin-2-ylmethylene)thiazolidin-3-yl)-N-(6-ethoxybenzo[d]thiazol-2-yl)acetamide]

melting point: 265 °C (dec.)
Structure (SMILES): O=C(CN1C(=O)SC(=Cc2ccccn2)C1=O)Nc1nc2ccc(F)cc2s1 [PB9, 2-(2,4-dioxo-5-(pyridin-2-ylmethylene)thiazolidin-3-yl)-N-(6-fluorobenzo[d]thiazol-2-yl)acetamide]
